Measured values as given in ChEMBL document CHEMBL3797052 (Eur J Med Chem, 2016).

Test system: not listed separately
Experiment: Cytotoxicity against human HCT116 cells assessed as growth inhibition at 100 uM after 2 days by MTT assay
Format: functional
Details: HCT-116, 48 h, read-out: GI

| Compound | inhibition of growth at 100 µM |
| --- | --- |
| CNC(=O)c1cc(Oc2ccc3nc(NC(=O)c4cccc(F)n4)sc3c2)ccn1 | 55.5% |

Test system: not listed separately
Experiment: Cytotoxicity against human HCT116 cells assessed as growth inhibition at 10 uM after 2 days by MTT assay
Format: functional
Details: HCT-116, 48 h, read-out: GI

| Compound | inhibition of growth at 10 µM |
| --- | --- |
| CNC(=O)c1cc(Oc2ccc3nc(NC(=O)c4cccc(F)n4)sc3c2)ccn1 | 10.8% |

Test system: not listed separately
Experiment: Cytotoxicity against human SKBR3 cells assessed as growth inhibition at 100 uM after 2 days by MTT assay
Format: functional
Details: SK-BR-3, 48 h, read-out: GI

| Compound | inhibition of growth at 100 µM |
| --- | --- |
| CNC(=O)c1cc(Oc2ccc3nc(NC(=O)c4cccc(F)n4)sc3c2)ccn1 | 89.4% |

Test system: not listed separately
Experiment: Cytotoxicity against human SKBR3 cells assessed as growth inhibition at 10 uM after 2 days by MTT assay
Format: functional
Details: SK-BR-3, 48 h, read-out: GI

| Compound | inhibition of growth at 10 µM |
| --- | --- |
| CNC(=O)c1cc(Oc2ccc3nc(NC(=O)c4cccc(F)n4)sc3c2)ccn1 | 12.5% |

Test system: not listed separately
Experiment: Antiproliferative activity against human MOLT4 cells assessed as cell growth at 10^-5 M after 48 hrs by sulforhodamine B assay
Format: functional
Details: MOLT-4, 48 h, read-out: Activity

| Compound | growth at 10 µM |
| --- | --- |
| CNC(=O)c1cc(Oc2ccc3nc(NC(=O)c4cccc(F)n4)sc3c2)ccn1 | 80.8% |

Test system: not listed separately
Experiment: Antiproliferative activity against human RPMI8226 cells assessed as cell growth at 10^-5 M after 48 hrs by sulforhodamine B assay
Format: functional
Details: RPMI-8226, 48 h, read-out: Activity

| Compound | growth at 10 µM |
| --- | --- |
| CNC(=O)c1cc(Oc2ccc3nc(NC(=O)c4cccc(F)n4)sc3c2)ccn1 | 70.4% |

Test system: A549
Experiment: Antiproliferative activity against human A549/ATCC cells assessed as cell growth at 10^-5 M after 48 hrs by sulforhodamine B assay
Format: functional
Details: A549, 48 h, read-out: Activity

| Compound | growth at 10 µM |
| --- | --- |
| CNC(=O)c1cc(Oc2ccc3nc(NC(=O)c4cccc(F)n4)sc3c2)ccn1 | 75.2% |

Test system: not listed separately
Experiment: Antiproliferative activity against human HOP62 cells assessed as cell growth at 10^-5 M after 48 hrs by sulforhodamine B assay
Format: functional
Details: HOP-62, 48 h, read-out: Activity

| Compound | growth at 10 µM |
| --- | --- |
| CNC(=O)c1cc(Oc2ccc3nc(NC(=O)c4cccc(F)n4)sc3c2)ccn1 | 90% |

Test system: not listed separately
Experiment: Antiproliferative activity against human HOP92 cells assessed as cell growth at 10^-5 M after 48 hrs by sulforhodamine B assay
Format: functional
Details: HOP-92, 48 h, read-out: Activity

| Compound | growth at 10 µM |
| --- | --- |
| CNC(=O)c1cc(Oc2ccc3nc(NC(=O)c4cccc(F)n4)sc3c2)ccn1 | 81.4% |

Test system: NCI-H226
Experiment: Antiproliferative activity against human NCI-H226 cells assessed as cell growth at 10^-5 M after 48 hrs by sulforhodamine B assay
Format: functional
Details: NCI-H226, 48 h, read-out: Activity

| Compound | growth at 10 µM |
| --- | --- |
| CNC(=O)c1cc(Oc2ccc3nc(NC(=O)c4cccc(F)n4)sc3c2)ccn1 | 76.3% |

Test system: NCI-H460
Experiment: Antiproliferative activity against human NCI-H460 cells assessed as cell growth at 10^-5 M after 48 hrs by sulforhodamine B assay
Format: functional
Details: NCI-H460, 48 h, read-out: Activity

| Compound | growth at 10 µM |
| --- | --- |
| CNC(=O)c1cc(Oc2ccc3nc(NC(=O)c4cccc(F)n4)sc3c2)ccn1 | 89.5% |

Test system: NCI-H522
Experiment: Antiproliferative activity against human NCI-H522 cells assessed as cell growth at 10^-5 M after 48 hrs by sulforhodamine B assay
Format: functional
Details: NCI-H522, 48 h, read-out: Activity

| Compound | growth at 10 µM |
| --- | --- |
| CNC(=O)c1cc(Oc2ccc3nc(NC(=O)c4cccc(F)n4)sc3c2)ccn1 | 69.8% |

Test system: not listed separately
Experiment: Antiproliferative activity against human COLO205 cells assessed as cell growth at 10^-5 M after 48 hrs by sulforhodamine B assay
Format: functional
Details: COLO 205, 48 h, read-out: Activity

| Compound | growth at 10 µM |
| --- | --- |
| CNC(=O)c1cc(Oc2ccc3nc(NC(=O)c4cccc(F)n4)sc3c2)ccn1 | 105% |

Test system: not listed separately
Experiment: Antiproliferative activity against human HCT15 cells assessed as cell growth at 10^-5 M after 48 hrs by sulforhodamine B assay
Format: functional
Details: HCT-15, 48 h, read-out: Activity

| Compound | growth at 10 µM |
| --- | --- |
| CNC(=O)c1cc(Oc2ccc3nc(NC(=O)c4cccc(F)n4)sc3c2)ccn1 | 92.2% |

Test system: KM12
Experiment: Antiproliferative activity against human KM12 cells assessed as cell growth at 10^-5 M after 48 hrs by sulforhodamine B assay
Format: functional
Details: KM12, 48 h, read-out: Activity

| Compound | growth at 10 µM |
| --- | --- |
| CNC(=O)c1cc(Oc2ccc3nc(NC(=O)c4cccc(F)n4)sc3c2)ccn1 | 87.5% |

Test system: not listed separately
Experiment: Antiproliferative activity against human SNB75 cells assessed as cell growth at 10^-5 M after 48 hrs by sulforhodamine B assay
Format: functional
Details: SNB-75, 48 h, read-out: Activity

| Compound | growth at 10 µM |
| --- | --- |
| CNC(=O)c1cc(Oc2ccc3nc(NC(=O)c4cccc(F)n4)sc3c2)ccn1 | 105% |

Test system: Malme-3M
Experiment: Antiproliferative activity against human MALME-3M cells assessed as cell growth at 10^-5 M after 48 hrs by sulforhodamine B assay
Format: functional
Details: read-out: Activity

| Compound | growth at 10 µM |
| --- | --- |
| CNC(=O)c1cc(Oc2ccc3nc(NC(=O)c4cccc(F)n4)sc3c2)ccn1 | 98.2% |

Test system: M14
Experiment: Antiproliferative activity against human M14 cells assessed as cell growth at 10^-5 M after 48 hrs by sulforhodamine B assay
Format: functional
Details: M14, 48 h, read-out: Activity

| Compound | growth at 10 µM |
| --- | --- |
| CNC(=O)c1cc(Oc2ccc3nc(NC(=O)c4cccc(F)n4)sc3c2)ccn1 | 91.8% |

Test system: SK-MEL-2
Experiment: Antiproliferative activity against human SK-MEL-2 cells assessed as cell growth at 10^-5 M after 48 hrs by sulforhodamine B assay
Format: functional
Details: SK-MEL-2, 48 h, read-out: Activity

| Compound | growth at 10 µM |
| --- | --- |
| CNC(=O)c1cc(Oc2ccc3nc(NC(=O)c4cccc(F)n4)sc3c2)ccn1 | 110% |

Test system: SK-MEL-28
Experiment: Antiproliferative activity against human SK-MEL-28 cells assessed as cell growth at 10^-5 M after 48 hrs by sulforhodamine B assay
Format: functional
Details: SK-MEL-28, 48 h, read-out: Activity

| Compound | growth at 10 µM |
| --- | --- |
| CNC(=O)c1cc(Oc2ccc3nc(NC(=O)c4cccc(F)n4)sc3c2)ccn1 | 105% |

Test system: not listed separately
Experiment: Antiproliferative activity against human UACC257 cells assessed as cell growth at 10^-5 M after 48 hrs by sulforhodamine B assay
Format: functional
Details: UACC-257, 48 h, read-out: Activity

| Compound | growth at 10 µM |
| --- | --- |
| CNC(=O)c1cc(Oc2ccc3nc(NC(=O)c4cccc(F)n4)sc3c2)ccn1 | 80.3% |

Test system: not listed separately
Experiment: Antiproliferative activity against human IGROV1 cells assessed as cell growth at 10^-5 M after 48 hrs by sulforhodamine B assay
Format: functional
Details: IGROV-1, 48 h, read-out: Activity

| Compound | growth at 10 µM |
| --- | --- |
| CNC(=O)c1cc(Oc2ccc3nc(NC(=O)c4cccc(F)n4)sc3c2)ccn1 | 101% |

Test system: not listed separately
Experiment: Antiproliferative activity against human OVCAR3 cells assessed as cell growth at 10^-5 M after 48 hrs by sulforhodamine B assay
Format: functional
Details: OVCAR-3, 48 h, read-out: Activity

| Compound | growth at 10 µM |
| --- | --- |
| CNC(=O)c1cc(Oc2ccc3nc(NC(=O)c4cccc(F)n4)sc3c2)ccn1 | 95.5% |

Test system: not listed separately
Experiment: Antiproliferative activity against human OVCAR4 cells assessed as cell growth at 10^-5 M after 48 hrs by sulforhodamine B assay
Format: functional
Details: OVCAR-4, 48 h, read-out: Activity

| Compound | growth at 10 µM |
| --- | --- |
| CNC(=O)c1cc(Oc2ccc3nc(NC(=O)c4cccc(F)n4)sc3c2)ccn1 | 76% |

Test system: not listed separately
Experiment: Antiproliferative activity against human OVCAR8 cells assessed as cell growth at 10^-5 M after 48 hrs by sulforhodamine B assay
Format: functional
Details: OVCAR-8, 48 h, read-out: Activity

| Compound | growth at 10 µM |
| --- | --- |
| CNC(=O)c1cc(Oc2ccc3nc(NC(=O)c4cccc(F)n4)sc3c2)ccn1 | 85% |

Test system: not listed separately
Experiment: Antiproliferative activity against human SKOV3 cells assessed as cell growth at 10^-5 M after 48 hrs by sulforhodamine B assay
Format: functional
Details: SK-OV-3, 48 h, read-out: Activity

| Compound | growth at 10 µM |
| --- | --- |
| CNC(=O)c1cc(Oc2ccc3nc(NC(=O)c4cccc(F)n4)sc3c2)ccn1 | 116% |

Test system: 786-0
Experiment: Antiproliferative activity against human 786-0 cells assessed as cell growth at 10^-5 M after 48 hrs by sulforhodamine B assay
Format: functional
Details: 786-0, 48 h, read-out: Activity

| Compound | growth at 10 µM |
| --- | --- |
| CNC(=O)c1cc(Oc2ccc3nc(NC(=O)c4cccc(F)n4)sc3c2)ccn1 | 86% |

Test system: A498
Experiment: Antiproliferative activity against human A498 cells assessed as cell growth at 10^-5 M after 48 hrs by sulforhodamine B assay
Format: functional
Details: A498, 48 h, read-out: Activity

| Compound | growth at 10 µM |
| --- | --- |
| CNC(=O)c1cc(Oc2ccc3nc(NC(=O)c4cccc(F)n4)sc3c2)ccn1 | 72.6% |

Test system: not listed separately
Experiment: Antiproliferative activity against human Caki1 cells assessed as cell growth at 10^-5 M after 48 hrs by sulforhodamine B assay
Format: functional
Details: CAKI-1, 48 h, read-out: Activity

| Compound | growth at 10 µM |
| --- | --- |
| CNC(=O)c1cc(Oc2ccc3nc(NC(=O)c4cccc(F)n4)sc3c2)ccn1 | 83% |

Test system: SN12C
Experiment: Antiproliferative activity against human SN12C cells assessed as cell growth at 10^-5 M after 48 hrs by sulforhodamine B assay
Format: functional
Details: read-out: Activity

| Compound | growth at 10 µM |
| --- | --- |
| CNC(=O)c1cc(Oc2ccc3nc(NC(=O)c4cccc(F)n4)sc3c2)ccn1 | 84.9% |

Test system: not listed separately
Experiment: Antiproliferative activity against human TK10 cells assessed as cell growth at 10^-5 M after 48 hrs by sulforhodamine B assay
Format: functional
Details: TK-10, 48 h, read-out: Activity

| Compound | growth at 10 µM |
| --- | --- |
| CNC(=O)c1cc(Oc2ccc3nc(NC(=O)c4cccc(F)n4)sc3c2)ccn1 | 133% |

Test system: not listed separately
Experiment: Antiproliferative activity against human UO31 cells assessed as cell growth at 10^-5 M after 48 hrs by sulforhodamine B assay
Format: functional
Details: UO-31, 48 h, read-out: Activity

| Compound | growth at 10 µM |
| --- | --- |
| CNC(=O)c1cc(Oc2ccc3nc(NC(=O)c4cccc(F)n4)sc3c2)ccn1 | 67.1% |

Test system: MCF7
Experiment: Antiproliferative activity against human MCF7 cells assessed as cell growth at 10^-5 M after 48 hrs by sulforhodamine B assay
Format: functional
Details: MCF7, 48 h, read-out: Activity

| Compound | growth at 10 µM |
| --- | --- |
| CNC(=O)c1cc(Oc2ccc3nc(NC(=O)c4cccc(F)n4)sc3c2)ccn1 | 86.3% |

Test system: MDA-MB-231
Experiment: Antiproliferative activity against human MDA-MB-231 cells assessed as cell growth at 10^-5 M after 48 hrs by sulforhodamine B assay
Format: functional
Details: MDA-MB-231, 48 h, read-out: Activity

| Compound | growth at 10 µM |
| --- | --- |
| CNC(=O)c1cc(Oc2ccc3nc(NC(=O)c4cccc(F)n4)sc3c2)ccn1 | 86% |

Test system: not listed separately
Experiment: Antiproliferative activity against human Hs 578T cells assessed as cell growth at 10^-5 M after 48 hrs by sulforhodamine B assay
Format: functional
Details: read-out: Activity

| Compound | growth at 10 µM |
| --- | --- |
| CNC(=O)c1cc(Oc2ccc3nc(NC(=O)c4cccc(F)n4)sc3c2)ccn1 | 92.7% |

Test system: not listed separately
Experiment: Antiproliferative activity against human BT549 cells assessed as cell growth at 10^-5 M after 48 hrs by sulforhodamine B assay
Format: functional
Details: BT-549, 48 h, read-out: Activity

| Compound | growth at 10 µM |
| --- | --- |
| CNC(=O)c1cc(Oc2ccc3nc(NC(=O)c4cccc(F)n4)sc3c2)ccn1 | 74.6% |

Test system: T47D
Experiment: Antiproliferative activity against human T47D cells assessed as cell growth at 10^-5 M after 48 hrs by sulforhodamine B assay
Format: functional
Details: read-out: Activity

| Compound | growth at 10 µM |
| --- | --- |
| CNC(=O)c1cc(Oc2ccc3nc(NC(=O)c4cccc(F)n4)sc3c2)ccn1 | 84.8% |
